Measured values published in ChEMBL document CHEMBL1201862, “PubChem BioAssay data set” (2004).
Active and inactive are the calls of the source.

Tests used:
H9c2 = assay: cells; format: functional, cell-based; conditions: Rattus norvegicus, H9c2, Myocardium
[1] = Trypanosoma cruzi growth suppression in host cells – NIH3T3 host cells, beta-gal luminescence, confirmation (AID 2044); format: functional, cell-based;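 also: intracellular parasites grown in NIH/3T3 mouse fibroblasts as host cells; luminescent beta-galactosidase reporter signal from transgenic T. cruzi replicating inside host cells; inhibitors lower the luminescence signal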
[2] = NIH3T3 cell viability loss – ATP luminescence, mouse fibroblasts, counter-screen, dose response (AID 2010); format: functional, cell-based;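 also: cells exposed to compound for about 90 hours before reading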
[3] = Luminescence Cell-Based Dose Retest to Confirm Inhibitors of Cancer Stem Cells. [Related pubchem assays (depositor defined):AID2717, AID2721]; format: functional; conditions: Homo sapiens
cells = format: functional
[4] = luciferase reporter signal suppression in cells – H4 neuroglioma cells, luminescence, dose response (AID 1990); format: functional, cell-based
[5] = Luminescence Cell-Based Dose Response HTS to Identify Inhibitors of 5'UTR Stem-Loop Driven Prion Protein mRNA Translation in H4 Neuroglioblastoma Cells. [Related pubchem assays: 1827 (Project Summary), 1813 (Primary HTS)]; format: functional
[6] = alpha-synuclein stem-loop luciferase translation blockers – H4 neuroglioma cells, luminescence, confirmation (AID 1988); format: functional, cell-based
[7] = viability of uninfected HEp-2 cells – cell-based, HTS, cytotoxicity control for RSV inhibitor project, dose response (AID 2410); format: functional; conditions: human respiratory syncytial virus
[8] = target: T1, Replicative DNA helicase DnaB (Mycobacterium tuberculosis, UniProt P9WMR3); assay: DnaB intein splicing inhibitors, dose response, biochemical, cell-free fluorescence (AID 449749); format: functional
T1 sequence (P9WMR3 whole entry): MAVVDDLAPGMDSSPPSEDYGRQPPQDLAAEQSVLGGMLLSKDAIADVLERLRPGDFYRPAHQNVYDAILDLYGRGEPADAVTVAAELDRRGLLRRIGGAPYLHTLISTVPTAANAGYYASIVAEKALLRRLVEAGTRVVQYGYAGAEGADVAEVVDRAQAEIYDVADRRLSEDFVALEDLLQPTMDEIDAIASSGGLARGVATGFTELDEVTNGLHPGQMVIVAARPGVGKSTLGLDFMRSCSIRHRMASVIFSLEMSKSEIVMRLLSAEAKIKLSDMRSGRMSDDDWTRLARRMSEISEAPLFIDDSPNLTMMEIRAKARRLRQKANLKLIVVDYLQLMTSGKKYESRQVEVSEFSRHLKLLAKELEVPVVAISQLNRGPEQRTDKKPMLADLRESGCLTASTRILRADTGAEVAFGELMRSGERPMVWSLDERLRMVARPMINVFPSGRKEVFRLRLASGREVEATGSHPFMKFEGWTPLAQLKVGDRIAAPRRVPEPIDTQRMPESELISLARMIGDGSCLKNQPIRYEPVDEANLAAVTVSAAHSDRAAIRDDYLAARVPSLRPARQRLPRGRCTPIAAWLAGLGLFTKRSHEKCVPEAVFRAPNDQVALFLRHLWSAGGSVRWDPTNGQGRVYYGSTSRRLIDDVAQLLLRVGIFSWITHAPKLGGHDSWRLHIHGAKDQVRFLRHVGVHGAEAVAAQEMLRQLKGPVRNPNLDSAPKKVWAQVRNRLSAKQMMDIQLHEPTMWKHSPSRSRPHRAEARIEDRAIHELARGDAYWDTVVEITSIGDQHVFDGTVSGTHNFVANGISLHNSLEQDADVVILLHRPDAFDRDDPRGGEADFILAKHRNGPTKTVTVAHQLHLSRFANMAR

Protein RecA = target: T2, Protein RecA (Mycobacterium tuberculosis, UniProt P9WHJ3); assay: Fluorescence Cell-Free Homogeneous Dose Retest to Identify Inhibitors of RecA-Intein Splicing Activity. [Related pubchem assays (depositor defined):AID2097, AID2223, AID489010, AID492950]; format: functional
T2 sequence (P9WHJ3 whole entry): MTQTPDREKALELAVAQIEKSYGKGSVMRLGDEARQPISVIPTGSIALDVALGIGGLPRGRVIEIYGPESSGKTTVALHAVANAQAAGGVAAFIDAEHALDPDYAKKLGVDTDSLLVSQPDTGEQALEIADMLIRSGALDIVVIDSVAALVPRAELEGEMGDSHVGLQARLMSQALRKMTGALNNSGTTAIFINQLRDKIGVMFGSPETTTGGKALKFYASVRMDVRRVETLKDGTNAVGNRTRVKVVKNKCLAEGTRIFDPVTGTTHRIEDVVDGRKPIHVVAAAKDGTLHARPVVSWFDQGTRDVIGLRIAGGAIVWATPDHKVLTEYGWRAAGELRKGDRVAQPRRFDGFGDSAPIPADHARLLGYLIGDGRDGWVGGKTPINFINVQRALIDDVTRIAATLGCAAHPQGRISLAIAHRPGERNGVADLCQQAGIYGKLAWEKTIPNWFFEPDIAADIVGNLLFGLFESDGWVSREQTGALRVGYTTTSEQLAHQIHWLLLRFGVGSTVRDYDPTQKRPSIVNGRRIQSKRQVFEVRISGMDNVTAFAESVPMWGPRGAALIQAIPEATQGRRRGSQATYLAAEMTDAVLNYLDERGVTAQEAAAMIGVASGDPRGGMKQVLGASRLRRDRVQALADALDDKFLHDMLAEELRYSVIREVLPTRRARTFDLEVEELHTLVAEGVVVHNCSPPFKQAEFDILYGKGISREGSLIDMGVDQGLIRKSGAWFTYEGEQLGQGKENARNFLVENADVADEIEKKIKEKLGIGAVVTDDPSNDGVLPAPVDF

[9] = system: Streptococcus sp. 'group A'; assay: Streptococcus pyogenes SK(-)GAS viability under kanamycin – luminescence, BacTiterGlo, confirmation, counter-screen for streptokinase expression inhibitor project, dose response (AID 1900); format: functional, organism-based
Streptokinase A = target: T3, Streptokinase A (Streptococcus pyogenes serotype M1, UniProt P10520); assay: viability-normalized secreted streptokinase activity reduction – plasminogen activation absorbance, OD405, dose response (AID 1914); format: functional, Streptococcus pyogenes M1 GAS;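 also: secreted streptokinase activity via plasminogen activation per viability signal from cell pellet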
T3 sequence (P10520 whole entry): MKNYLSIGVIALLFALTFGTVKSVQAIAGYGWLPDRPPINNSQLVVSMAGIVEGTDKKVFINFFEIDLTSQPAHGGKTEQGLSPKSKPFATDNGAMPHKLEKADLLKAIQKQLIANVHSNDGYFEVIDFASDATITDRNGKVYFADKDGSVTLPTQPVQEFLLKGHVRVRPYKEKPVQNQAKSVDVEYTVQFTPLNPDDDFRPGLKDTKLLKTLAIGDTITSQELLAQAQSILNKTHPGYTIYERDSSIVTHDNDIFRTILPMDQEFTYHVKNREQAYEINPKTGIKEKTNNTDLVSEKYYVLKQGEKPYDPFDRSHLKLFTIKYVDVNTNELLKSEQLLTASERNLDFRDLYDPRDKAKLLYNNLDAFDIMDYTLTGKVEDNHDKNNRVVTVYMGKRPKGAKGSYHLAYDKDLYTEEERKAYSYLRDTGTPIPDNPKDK

Streptococcus = assay: GAS UMAA2166 growth inhibition – luminescence, BacTiterGlo, counter-screen for streptokinase expression inhibitor project, dose response (AID 1915); format: functional, organism-based;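 also: potency for reduction of bacterial viability or growth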
[10] = fluconazole-exposed Candida albicans growth modulators – fluorescence, retest, confirmation (AID 2467); format: functional, cell-based
[11] = microbe, parasite or virus in culture; format: functional; conditions: Mycobacterium tuberculosis
P388/ADR = assay: cells; format: functional; conditions: Mus musculus
SN12K1 = assay: cells; format: functional
P388 = assay: cells; format: functional
[12] = P. falciparum Dd2 growth inhibitors, dose response, SYBR Green, cherry-picked samples (AID 1159567); format: functional, cell-based

## CC(C)NC(=O)COC(=O)Cn1[nH]c(=O)c2ccccc2c1=O
H9c2
  IC50: 16.4 µM (active)

## CC1Cc2ccccc2N1C(=O)COC(=O)c1nnc(O)c2ccccc12 (stereo unspecified)
H9c2
  IC50: > 79 µM (inactive)

## COc1ccc(C(=O)Nc2nc(-c3ccccn3)cs2)cc1S(=O)(=O)N1CCOCC1
H9c2
  IC50: 10.9 µM (active)

## CC1(C)CC2C1CCC1(O)CC2(C)CCC1N(O)c1ccc(C(=O)NCCO)cn1 (stereo unspecified)
H9c2
  IC50: > 79 µM (inactive)

## CCOc1cc(CNc2ccc(Br)cc2)cc(Br)c1OCC(=O)NC(C)(C)C
[1]
  EC50: 1.91 µM (active)
[2]
  EC50: 37.3 µM (active)
[3]
  AC50: 31.6 µM (active)

## COc1ccc(OC(=O)CCc2c[nH]c3ccccc23)cc1
cells
  IC50: 0.48 µM (active)

## C=CCn1c(SCc2c(C)noc2C)nc2sc3c(c2c1=O)CCCCC3
[4]
  EC50: 14.7 µM (active)
[5]
  EC50: 14.8 µM (active)
[6]
  EC50: 15.1 µM (active)
[3]
  AC50: 0.856 µM (active)

## S=C(Nc1ccccc1Cl)N1CCCC(c2ccccc2)=N1
[7]
  CC50: 25.1 µM (active)
[3]
  AC50: 4.35 µM (active)

## Cc1nccn1-c1c([N+](=O)[O-])c(=O)n(C)c2ccccc12
[8]
  AC50: 29 µM (active)
Protein RecA
  EC50: 12.2 µM (active)

## NC(=O)CC(NC(=O)Cc1ccc(Br)cc1)c1ccc(N2CCN(c3ccccc3)CC2)c([N+](=O)[O-])c1 (stereo unspecified)
[3]
  AC50: 14.4 µM (active)

## CC1Cc2ccccc2C(=O)N1 (stereo unspecified)
H9c2
  IC50: 12.5 µM (active)

## Fc1ccc(-[n+]2nc(Nc3ccccc3)sc2-c2c3ccccc3cc3ccccc23)cc1
[9]
  EC50: 6.85 µM (active)
Streptokinase A
  EC50: 3.22 µM (active)
Streptococcus
  EC50: 9.23 µM (active)
[8]
  AC50: > 380 µM (inactive)
Protein RecA
  EC50: 10.6 µM (active)

## CC(=O)Nc1cc(OC(=O)c2ccco2)cc(OC(=O)c2ccco2)c1
[8]
  AC50: 1.77 µM (active)
Protein RecA
  EC50: 1.03 µM (active)

## O=C(COc1ccccc1)Nc1nnc(-c2ccc3c(c2)CCCC3)o1
[10]
  EC50: 0.499 µM (active)
cells
  IC50: 10.3 µM (active)

## Clc1cccc(CNCCNCc2cccc(Cl)c2)c1
cells
  IC50: 20.5 µM (active)

## Cc1cc(C)nc(NC(=O)c2ccc(COc3ccccc3Cl)cc2)c1
[3]
  AC50: 0.245 µM (active)

## COc1ccc(-c2c(C#N)c(SCC(=O)c3cc4ccccc4oc3=O)nc(C)c2C(=O)Nc2ccccc2)cc1
[11]
  CC50: 5.32 µM (active)
[3]
  AC50: 0.738 µM (active)

## CCOC(=O)C(C)Oc1ccc(OCc2ccccc2)cc1 (stereo unspecified)
cells
  IC50: 6.32 µM (active)

## COc1cccc(C(c2nnnn2Cc2ccccc2)N2CCN(C3CCCC3)CC2)c1OC (stereo unspecified)
H9c2
  IC50: > 79 µM (inactive)

## O=C(COc1cccc2c1CCNC2=O)NC1CCCCC1
H9c2
  IC50: > 79 µM (inactive)

## COc1ccccc1-c1sc2ccccc2c1C#CC1(O)CCCCC1
[3]
  AC50: 5.11 µM (active)

## O=C(COc1cccc(F)c1)Nc1nc(-c2ccccn2)cs1
H9c2
  IC50: > 79 µM (inactive)

## O=S(=O)(CCBr)CCBr
P388/ADR
  GI50: 2.84 µM (inactive)
SN12K1; Homo sapiens, SN12K1
  GI50: 6.59 µM (inactive)
P388; Mus musculus, P388
  GI50: 2.13 µM (inactive)

## COc1ccc(OC)c(/C=N/NC(=O)c2cc3c(OC)c(OC)ccc3[nH]2)c1
H9c2
  IC50: > 79 µM (inactive)

## Cc1c(/C=N/NC(=O)c2ccc(O)cc2)c2ccccn2c1C(=O)c1ccc(F)cc1
H9c2
  IC50: > 79 µM (inactive)

## CSc1nc(NC2OC(CO)C(O)C(O)C2O)c(N)c(=O)n1C (stereo unspecified)
P388/ADR
  GI50: > 100 µM (inactive)
SN12K1; Homo sapiens, SN12K1
  GI50: > 100 µM (inactive)
P388; Mus musculus, P388
  GI50: > 100 µM (inactive)

## O=C(N/N=C/C(Br)=C/c1ccccc1)c1cnccn1
cells
  IC50: 31.1 µM (active)

## O=C(NCCCCCCNC(=O)n1cc(F)c(=O)[nH]c1=O)NCCCOCCOCCOCCOCCOCCOCCOCCOCCOCCOCCOCCOCCOCCOCCOCCOCCOCCOCCOCCOCCOCCCNC(=O)C(O)C(O)C(OC1OC(CO)C(O)C(O)C1O)C(O)CO (stereo unspecified)
P388/ADR
  GI50: 0.43 µM (active)
SN12K1; Homo sapiens, SN12K1
  GI50: 6.46 µM (inactive)
P388; Mus musculus, P388
  GI50: 0.566 µM (active)

## C[n+]1ccc(Nc2ccc(NC(=O)c3ccc(Nc4cc[n+](C)c5ccc([N+](=O)[O-])cc45)cc3[N+](=O)[O-])cc2)cc1
SN12K1
  GI50: 23.4 µM (inactive)
P388
  GI50: 0.617 µM (active)

## CCCNC(=O)N1[C@@H](C#N)[C@H](c2ccccc2-c2ccccc2F)[C@@H]1CO
[12]
  AC50: 18.8 µM (active)

## COc1ccc2c3c([nH]c2c1)[C@@H](CO)N(Cc1cccc(Cl)c1)CC31CCN(C(C)=O)CC1
[12]
  AC50: 3.22 µM (active)

## CN1CCN(C(=O)C[C@H]2C[C@@H]3c4cc(NC(=O)Nc5ccc(C(F)(F)F)cc5)ccc4O[C@@H]3[C@@H](CO)O2)CC1
[12]
  AC50: 5.16 µM (active)

## COc1cccc2c1C(=N)c1c(O)c3c(c(O)c1C2=O)C[C@@](O)(C(C)=O)C[C@@H]3OC1CC(N)C(O)C(C)O1 (stereo partly specified)
P388/ADR
  GI50: 0.000673 µM (active)
SN12K1; Homo sapiens, SN12K1
  GI50: 0.124 µM (active)
P388; Mus musculus, P388
  GI50: 0.000159 µM (active)
